Laboratory results taken from PubChem BioAssay AID1671319.

Biological target: Tyrosine-protein kinase Lyn (Homo sapiens) (UniProt P07948)
Assay: LYN B kinase inhibition, dose response, biochemical, LYN B isoform, Z'-LYTE, FRET readout (AID 1671319)
Settings: Z'-LYTE FRET kinase assay, recombinant LYN B

Sequence of Tyrosine-protein kinase Lyn (Homo sapiens) (P07948 whole entry, looked up, canonical isoform): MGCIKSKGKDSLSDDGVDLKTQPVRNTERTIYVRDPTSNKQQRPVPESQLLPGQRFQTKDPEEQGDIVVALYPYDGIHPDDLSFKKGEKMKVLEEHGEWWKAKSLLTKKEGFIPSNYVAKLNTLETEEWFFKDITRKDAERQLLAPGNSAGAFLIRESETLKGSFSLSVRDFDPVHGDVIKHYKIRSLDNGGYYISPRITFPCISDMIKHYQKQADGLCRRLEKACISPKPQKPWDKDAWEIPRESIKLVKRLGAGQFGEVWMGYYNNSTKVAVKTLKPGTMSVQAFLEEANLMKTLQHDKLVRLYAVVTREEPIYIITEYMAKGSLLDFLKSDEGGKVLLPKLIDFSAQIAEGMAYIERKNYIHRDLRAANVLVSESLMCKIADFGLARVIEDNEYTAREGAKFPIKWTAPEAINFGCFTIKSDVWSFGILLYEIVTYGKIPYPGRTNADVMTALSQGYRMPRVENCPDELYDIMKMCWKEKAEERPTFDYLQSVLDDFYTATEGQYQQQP

IC50: 244 nM
SMILES: COc1cc2ncnc(Nc3cccc(Cl)c3)c2cc1OC
